Data on 1 compound can be found in patent US20190029257A1, “APPLICATION FOR HERBICIDE-TOLERANT PROTEIN” (BEIJING DABEINONG TECHNOLOGY GROUP CO., LTD., priority 2016, published 2019).

Assay [1] has as its system wild-type Arabidopsis thaliana plants. Put plainly: Herbicide tolerance of Arabidopsis thaliana plants (spray, resistance classes counted). The assay is classed as in vivo. An excerpt: T1 transformants were initially selected from the background of untransformed seeds using a glufosinate selection scheme. About 40000 T1 seeds were screened, and 380 T1 positive transformants (PAT gene) were identified with a transformation efficiency of about 0.95%. The plants that were transformed with the recombinant expression vector DBN100632 were Arabidopsis thaliana plants having an ALT-1-01 nucleotide sequence located in the cytoplasm introduced (At cytoplasmic ALT-1-01), and the plants that were transformed with the recombinant expression vector DBN100631 were Arabidopsis thaliana plants having an ALT-1-01 nucleotide sequence located in the chloroplast introduced (At chloroplastic ALT-1-01); the plants that were transformed with the recombinant expression vector DBN100634 were Arabidopsis thaliana plants having an ALT-2-01 nucleotide sequence located in the cytoplasm introduced (At cytoplasmic ALT-2-01), and the plants that were transformed with the recombinant expression vector DBN100633 were Arabidopsis thaliana plants having an ALT-2-01 nucleotide sequence located in the chloroplast introduced (At chloroplastic ALT-2-01); and the plants that were transformed with the recombinant expression vector DBN100636 were Arabidopsis thaliana plants having an ALT-3-01 nucleotide sequence located in the cytoplasm introduced (At cytoplasmic ALT-3-01), and the plants that were transformed with the recombinant expression vector DBN100635 were Arabidopsis thaliana plants having an ALT-3-01 nucleotide sequence located in the chloroplast introduced (At chloroplastic ALT-3-01). The herbicide tolerance effects of At cytoplasmic ALT-1-01 T1 plants, At chloroplastic ALT-1-01 T1 plants, At cytoplasmic ALT-2-01 T1 plants, At chloroplastic ALT-2-01 T1 plants, At cytoplasmic ALT-3-01 T1 plants, At chloroplastic ALT-3-01 T1 plants and wild-type Arabidopsis thaliana plants on halosulfuron-methyl were detected (14 days after sowing), respectively.
At cytoplasmic ALT-1-01 T1 plants, At chloroplastic ALT-1-01 T1 plants, At cytoplasmic ALT-2-01 T1 plants, At chloroplastic ALT-2-01 T1 plants, At cytoplasmic ALT-3-01 T1 plants, At chloroplastic ALT-3-01 T1 plants and wild-type Arabidopsis thaliana plants were sprayed with halosulfuron-methyl (34 g ai/ha, 1-fold field concentration) and a blank solvent (water), respectively. Plants were counted for the resistance situations 14 days after spraying: those having a consistent growth status with the blank solvent (water) group after 14 days were classified as highly resistant plants, those having a bolting height less than ½ of that of the blank solvent (water) group after 14 days were classified as moderately resistant plants, those still not capable of bolting after 14 days were classified as poorly resistant plants, and those dead after 14 days were classified as non-resistant plants. Since each Arabidopsis thaliana T1 plant was an independent transformation event, a significant difference in individual T1 responses could be expected at a given dose.
At cytoplasmic ALT-1-01 T1 plants, At chloroplastic ALT-1-01 T1 plants, At cytoplasmic ALT-2-01 T1 plants, At chloroplastic ALT-2-01 T1 plants, At cytoplasmic ALT-3-01 T1 plants, At chloroplastic ALT-3-01 T1 plants and wild-type Arabidopsis thaliana plants in Example 4 were sprayed with iodosulfuron-methyl (10 g ai/ha, 1-fold field concentration), mesosulfuron (14 g ai/ha, 1-fold field concentration) and oxasulfuron (60 g ai/ha, 1-fold field concentration), respectively, in addition to halosulfuron-methyl (34 g ai/ha, 1-fold field concentration) and the blank solvent (water). […]

In assay [2] the test system is Gm chloroplastic ALT-3-01 soybean plants. Put plainly: Halosulfuron-methyl tolerance of soybean plants (damage degree). The assay is classed as in vivo. More on the design: dose or concentration left out as unconfirmed. The conditions noted are these: for Average damage % 3 DAT: 3 days after spraying; for Average damage % 7 DAT: 7 days after spraying; for Average damage % 14 DAT: 14 days after spraying; for Average damage % 21 DAT: 21 days after spraying. An excerpt:
The herbicide tolerance effects of Gm cytoplasmic ALT-1-01 soybean plants, Gm chloroplastic ALT-1-01 soybean plants, Gm cytoplasmic ALT-2-01 soybean plants, Gm chloroplastic ALT-2-01 soybean plants, Gm cytoplasmic ALT-3-01 soybean plants, Gm chloroplastic ALT-3-01 soybean plants and wild-type soybean plants on halosulfuron-methyl were detected (at seedling stage), respectively.
Gm cytoplasmic ALT-1-01 soybean plants, Gm chloroplastic ALT-1-01 soybean plants, Gm cytoplasmic ALT-2-01 soybean plants, Gm chloroplastic ALT-2-01 soybean plants, Gm cytoplasmic ALT-3-01 soybean plants, Gm chloroplastic ALT-3-01 soybean plants and wild-type soybean plants were respectively taken and sprayed with halosulfuron-methyl ([…]) and a blank solvent (water). The damage degree caused by the herbicide was measured for each plant according to the leaf curl degree and the growth point damage degree 3 days after spraying (3 DAT), 7 days after spraying (7 DAT), 14 days after spraying (14 DAT) and 21 days after spraying (21 DAT), respectively: considering conditions of leaves being flat as the untreated plants and growth points being intact as having a damage degree of 0%; considering conditions of veins being locally browned, new leaves being malformed and plant growth being slow as having a damage degree of 50%; and considering conditions of veins being purple to whole plant being dead and growth points being browned and dry as having a damage degree of 100%. There were 2 strains in Gm cytoplasmic ALT-1-01 soybean plants in total (S1 and S2), 2 strains in Gm chloroplastic ALT-1-01 soybean plants in total (S3 and S4), 2 strains in Gm cytoplasmic ALT-2-01 soybean plants in total (S5 and S6), 2 strains in Gm chloroplastic ALT-2-01 soybean plants in total (S7 and S8), 2 strains in Gm cytoplasmic ALT-3-01 soybean plants in total (S9 and S10), 2 strains in Gm chloroplastic ALT-3-01 soybean plants in total (S11 and S12), and 1 strain in wild-type soybean plants (CK1) in total; and 10-15 plants were selected from each strain and tested.

Setting [3] is: 18 g ai/ha (1x Hal.), number of plants 14 days after spraying, Total 32.

In assay [1] (setting [3]), `COC(=O)c1c(Cl)nn(C)c1S(=O)(=O)NC(=O)Nc1nc(OC)cc(OC)n1` [halosulfuron-methyl, 3-chlorine-5-(4,6-dimethoxypyrimidine-2-aminocarbonylaminosulphonyl)-1-methylpyrazole-4-carboxylic acid methyl ester] yielded a Highly resistant of 0, a Moderately resistant of 0, a Non-resistant of 32 and a Poorly resistant of 0. Moreover, in assay [1] (34 g ai/ha, summary of Table 1 and FIG. 4), the “tolerance of the plants to the herbicide” value is recorded as “none of the wild-type Arabidopsis thaliana plants was tolerant”. Moreover, in assay [2] (strain S11), the “Average damage % 3 DAT” value is recorded as 10%, the “Average damage % 7 DAT” value is listed as 4%, the “Average damage % 14 DAT” value was 0% and the “Average damage % 21 DAT” value is reported as 0%. Also, in assay [2] (strain S12), the “Average damage % 3 DAT” value is recorded as 11%, the “Average damage % 7 DAT” value is recorded as 5%, the “Average damage % 14 DAT” value is 0% and the “Average damage % 21 DAT” value was 0%.
